Measurements from paper PMC3281083, “Impact of the Herbal Medicine Sophora flavescens on the Oral Pharmacokinetics of Indinavir in Rats: The Involvement of CYP3A and P-Glycoprotein” (PLoS ONE, 2012).
Read-outs that look alike come from different tables or passages of the source.

Legend:
[1] = design: method as in PMID 10604964, PMID 10497146; conditions: rats; cited from earlier work
[2] = Multiple-dose oral pharmacokinetics of indinavir (plasma) with co-administered Sophora preparations; type: in vivo, Male Wistar rats; conditions: male, Wistar, rat, 40 mg/kg; for AUC(0-inf) / CL/F / Cmax / Tmax: po; for AUC(0-inf): read-out: AUC0-∞ of indinavir
Experimental: Thirty rats were randomly designated as vehicle control, low-dose and high-dose Sophora treatment groups (ten rats in each group). A separate experiment was performed using eighteen rats designated as vehicle control, oxymatrine capsule and Sophora EA fraction groups (six rats in each group). […] Indinavir from […]® capsule (Merck & CO. Inc., Whitehouse Station, NJ, USA) was dissolved in 50 mM citric acid, and the oxymatrine capsule contents were dissolved in distilled water. […] The treatments were given twice a day (9 a.m. and 7 p.m.) for 7 consecutive days. The dosages were designed on the basis of clinical doses in human. The daily dose of S. flavescens recommended by the Chinese Pharmacopoeia is 4.5-9 g of raw herb per day. […] Taking the low and high ends of these dose ranges, and using a conversion based on the body-surface-area ratio between rats and human, an animal dose range of 0.45-1.8 g/kg/day (raw herb equivalent) was estimated for experimental rats. […] Plasma was obtained by centrifugation at 7,000× g for 15 min at 4°C and frozen at -80°C prior to analysis. […] Organ tissues, including liver and intestine, were isolated, rinsed with saline, blotted dried, snap-frozen in liquid nitrogen, and stored at -80°C until use. […] Midazolam was used as the internal standard. […] The residues were reconstituted with 200 μL of methanol-water (v/v, 1∶1) solution. The faeces were homogenized in about 4-fold volume of distilled water. The homogenates were extracted with equal volume of acetonitrile. After centrifugation, 1 mL of the supernatant was transferred to a glass tube, and was subsequently subjected to addition of midazolam, alkalization, extraction with ethyl acetate, drying and reconstitution. All reconstituted samples (60 μL) were separated on a Prevail C18 column (250 mm×4.6 mm […]) by an Agilent 1100 HPLC system (Agilent Technologies, Santa Clara, CA, USA). The flow rate was 0.8 mL/min. […] The effluent was introduced to APCI-MS (Agilent 1100 series LC/MSD Trap SL system, Santa Clara, CA, USA) with positive detection mode. […] Extract ion chromatograms at m/z 614 (indinavir) and m/z 326 (midazolam) were used for quantification (Figure S1). Quantification of indinavir was performed on six levels of standards in blank plasma or faeces homogenate. […] The recovery of the analyte ranged from 80% to 90%. […] The area under the plasma concentration-time curves from zero to infinity (AUC0-∞) was calculated by the trapezoidal rules. Clearance (CL) was calculated by the equation (F×Dose)/AUC0-∞, where F is the fraction of dose available in the systemic circulation. Peak plasma concentration (Cmax) and the time when it occurred (T max) were derived directly from the curves. Statistical differences were determined by unpaired Student's t test or one-way analysis of variance (one-way ANOVA) followed by Dunnett's post test. All tests were two-tailed and the significance was set at P<0.05.

[3] = design: method as in PMID 15771225; conditions: low solubility/high permeability/extensive metabolism; cited from earlier work
[4] = indinavir 40 mg/kg orally, multiple dosage, with EA fraction 0.164 g/kg/day, mean ± S.E.M.
[5] = indinavir 40 mg/kg orally, multiple dosage, with Oxymatrine (capsule) 90 mg/kg/day, mean ± S.E.M.
[6] = indinavir 40 mg/kg orally, multiple dosage, with Sophora extract 0.316 g/kg/day, mean ± S.E.M.
[7] = indinavir 40 mg/kg orally, multiple dosage, with Sophora extract 1.26 g/kg/day, mean ± S.E.M.
[8] = indinavir 40 mg/kg orally, multiple dosage, with vehicle control, mean ± S.E.M.

C0 ([2]; oral, day 8, before last indinavir dose, detectable, below limit of quantification, read-out: Plasma indinavir concentration at time zero): < 50 ng/mL
AUC(0-inf) ([2]; indinavir 40 mg/kg orally twice a day for 7 days, last dose day 8, with vehicle control (1.5% Tween 80), mean ± S.E.M.): 16100 ± 990 ng·h/mL
CL/F [2, 4]: 57.6 mL/min/kg
Cmax [2, 4]: 8410 ± 860 ng/mL
AUC(0-inf) [2, 4]: 12300 ± 1310 ng·h/mL
Tmax ([2]; indinavir 40 mg/kg orally, multiple dosage, with EA fraction 0.164 g/kg/day, mean ± S.E.M., read-out: T max of indinavir): 40.2 ± 9 min
CL/F [2, 5]: 159 mL/min/kg
Cmax [2, 5]: 4970 ± 810 ng/mL
AUC(0-inf) [2, 5]: 5290 ± 1110 ng·h/mL
Tmax ([2]; indinavir 40 mg/kg orally, multiple dosage, with Oxymatrine (capsule) 90 mg/kg/day, mean ± S.E.M., read-out: T max of indinavir): 25.2 ± 7.2 min
CL/F [2, 6]: 101 mL/min/kg
Cmax [2, 6]: 7170 ± 690 ng/mL
AUC(0-inf) [2, 6]: 7230 ± 870 ng·h/mL
Tmax ([2]; indinavir 40 mg/kg orally, multiple dosage, with Sophora extract 0.316 g/kg/day, mean ± S.E.M., read-out: T max of indinavir): 37.2 ± 7.2 min
CL/F [2, 7]: 316 mL/min/kg
Cmax [2, 7]: 3090 ± 1080 ng/mL
AUC(0-inf) [2, 7]: 2780 ± 610 ng·h/mL
Tmax ([2]; indinavir 40 mg/kg orally, multiple dosage, with Sophora extract 1.26 g/kg/day, mean ± S.E.M., read-out: T max of indinavir): 30 ± 11.4 min
CL/F [2, 8]: 42.8 mL/min/kg
Cmax [2, 8]: 11500 ± 670 ng/mL
Tmax ([2]; indinavir 40 mg/kg orally, multiple dosage, with vehicle control, mean ± S.E.M., read-out: T max of indinavir): 30 ± 6 min
Tmax ([2]; oral, read-out: T max of indinavir determined in our study): 30 to 37 min
SMILES: CC(C)(C)NC(=O)[C@@H]1CN(Cc2cccnc2)CCN1C[C@@H](O)C[C@@H](Cc1ccccc1)C(=O)N[C@H]1c2ccccc2C[C@H]1O [indinavir]
Oral bioavailability [1]: 26%
Metabolic (drug disposition) class [3]: Class 2
